According to patent US7615551B2, “Salicylate and gentisate salts of a piperazine compound” (Solvay Pharmaceuticals, B.V., priority 2005, dated 2009):

Key:
D2 receptors = D2 receptors (Homo sapiens, UniProt P14416); conditions: cited from earlier work
catalepsy = conditions: rodents; cited from earlier work
[1] = in vivo; cited from earlier work
5HT reuptake = 5HT reuptake (Homo sapiens, UniProt P31645); conditions: in therapeutic models; cited from earlier work
Water solubility = format: physicochemical; conditions: excess solid salt in water, equilibrated at least 24 hours, filtered, HPLC-UV; resulting pH 5.8
Protocol: Water solubility was determined by combining an excess amount of solid salt with ˜2 mL D1 water in a 4 mL glass screw-cap vial and equilibrating for at least 24 hours on an end-over-end rotator. The resulting suspensions were filtered through a 0.22 μm PVDF filter and assayed by high pressure liquid chromatography with quantitation by UV against standards of compound 1.

Sequence of 5HT reuptake (P31645 whole entry): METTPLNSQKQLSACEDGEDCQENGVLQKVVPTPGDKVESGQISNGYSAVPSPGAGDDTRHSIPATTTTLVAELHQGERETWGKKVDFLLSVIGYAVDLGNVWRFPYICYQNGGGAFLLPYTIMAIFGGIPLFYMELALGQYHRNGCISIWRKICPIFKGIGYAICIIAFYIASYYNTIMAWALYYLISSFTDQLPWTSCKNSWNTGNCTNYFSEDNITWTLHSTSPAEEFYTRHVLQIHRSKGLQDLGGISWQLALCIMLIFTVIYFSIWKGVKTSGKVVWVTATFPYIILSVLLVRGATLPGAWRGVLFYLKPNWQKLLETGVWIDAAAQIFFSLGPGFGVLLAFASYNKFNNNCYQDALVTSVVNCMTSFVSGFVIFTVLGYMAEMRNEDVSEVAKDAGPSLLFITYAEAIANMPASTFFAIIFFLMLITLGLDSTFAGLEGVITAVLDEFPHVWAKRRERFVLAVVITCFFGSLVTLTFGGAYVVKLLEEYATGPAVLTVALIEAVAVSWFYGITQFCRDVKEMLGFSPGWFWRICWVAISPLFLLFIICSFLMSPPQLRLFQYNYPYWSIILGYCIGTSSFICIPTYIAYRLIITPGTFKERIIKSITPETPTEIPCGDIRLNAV
Sequence of D2 receptors (P14416 whole entry): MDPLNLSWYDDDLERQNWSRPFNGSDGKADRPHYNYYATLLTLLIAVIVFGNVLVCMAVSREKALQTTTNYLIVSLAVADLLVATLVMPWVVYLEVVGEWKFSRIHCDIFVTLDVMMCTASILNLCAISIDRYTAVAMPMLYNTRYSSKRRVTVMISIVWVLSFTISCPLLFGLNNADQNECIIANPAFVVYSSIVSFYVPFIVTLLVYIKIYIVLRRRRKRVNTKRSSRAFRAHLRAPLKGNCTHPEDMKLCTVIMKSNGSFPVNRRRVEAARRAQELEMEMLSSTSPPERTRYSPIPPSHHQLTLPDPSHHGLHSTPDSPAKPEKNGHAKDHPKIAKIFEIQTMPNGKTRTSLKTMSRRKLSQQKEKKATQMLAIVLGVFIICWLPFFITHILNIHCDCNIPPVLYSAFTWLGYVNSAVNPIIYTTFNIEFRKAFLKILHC

SMILES	activity at D2 receptors (D2 receptors)	propensity to induce catalepsy (catalepsy)	activity in therapeutic models sensitive to antipsychotics, antidepressants, anxiolytics, Parkinson's disease [1]	activity against 5HT reuptake (5HT reuptake)	water solubility (Water solubility)
CC1Oc2c(cccc2N2CCN(CCCc3c[nH]c4ccc(F)cc34)CC2)NC1=O (stereo not drawn) [compound 1, 8-{4-[3-(5-fluoro-1H-indol-3-yl)-propyl]-piperazin-1-yl}-2-methyl-4H-benzo[1,4]oxazin-3-one]	antagonistic activity	low propensity to induce catalepsy	active	inhibitory activity	
CC1Oc2c(cccc2N2CCN(CCCc3c[nH]c4ccc(F)cc34)CC2)NC1=O (stereo not drawn) [compound 2]					1600 µg/mL (freebase equivalent)
CC1Oc2c(cccc2N2CCN(CCCc3c[nH]c4ccc(F)cc34)CC2)NC1=O (stereo not drawn) [compound 3]					500 µg/mL (freebase equivalent)
